Values quoted from earlier work in article PMC6050274, “Buparlisib is a brain penetrable pan-PI3K inhibitor” (Scientific Reports, 2018).

Details: cited from earlier work

brain-plasma ratio, ≤ 1:
COC1(c2sc3c(N4CCOCC4)nc(-c4cnc(N)nc4)nc3c2C)COC1 [GNE-317]
Cn1c(=O)n(-c2ccc(C(C)(C)C#N)cc2)c2c3cc(-c4cnc5ccccc5c4)ccc3ncc21 [NVP-BEZ235]
FC(F)c1nc2ccccc2n1-c1nc(N2CCOCC2)nc(N2CCOCC2)n1 [ZSTK474]
